Here are results for 28 molecules from patent US20120121540A1 (priority 2007, published 2012).

Molecules are shown by their SMILES.

The experiment can be described thus: HCV replicon assay (luciferase reporter, ET cell line). The format is cell-based. The following applies: Hepatitis C virus, HCV replicon luciferase activity in ET cells. The protocol:
A cell line, ET (Huh-lucubineo-ET) is used for screening of compounds for inhibiting HCV RNA dependent RNA polymerase. The ET cell line is stably transfected with RNA transcripts harboring a I389 luc-ubi-neo/NS3-3′/ET; replicon with firefly luciferase-ubiquitin-neomycin phosphotransferase fusion protein and EMCV-IRES driven NS3-5B polyprotein containing the cell culture adaptive mutations (E1202G; T1280I; K1846T) (Krieger at al, 2001 and unpublished). The ET cells are grown in DMEM (Dulbeco's Modified Eagle's Medium), supplemented with 10% fetal calf serum, 2 mM Glutamine, Penicillin (100 IU/mL)/Streptomycin (100 μg/mL), 1× nonessential amino acids, and 250 μg/mL G418 (“Geneticin”). They are all available through Life Technologies (Bethesda, Md.). The cells are plated at 0.5−1.0×10^4 cells/well in the 96 well plates and incubated for 24 hrs before adding test compound. The compounds are added to the cells to achieve a final concentration of 0.1 nM to 50 μm and a final DMSO (dimethylsulfoxide) concentration of 0.5%. Luciferase activity is measured 48-72 hours later by adding a lysis buffer and the substrate (Catalog number Glo-lysis buffer E2661 and Bright-Glo luciferase system E2620 Promega, Madison, Wis.). Cells should not be too confluent during the assay. Percent inhibition of replication data is plotted relative to no compound control. Under the same condition, cytotoxicity of the compounds are determined using cell proliferation reagent, WST-1 (Roche, Germany). The compounds showing antiviral activities, but no significant cytotoxicities are chosen to determine EC50 and TC50. For these determinations, a 10 point, 2-fold serial dilution for each compound was used, which spans a concentration range of 1000 fold. EC50 and similarly TC50 values were calculated by fitting % inhibition at each concentration to the following equation:
% inhibition=100%/[(EC50/[I])^b+1]
where b is Hill's coefficient.
% inhibition values at a specific concentration, […] for example, can also be derived from the equation above.
Background: Replicon systems follow genome replication, usually without infectious particles.
Molecule `O=C(N[C@H]1C[C@@H]1c1ccccc1)c1nc2c(C(F)(F)F)cc(-c3ccco3)cn2c1Cl` (stereo in doubt) [Compound 188, 3-Chloro-6-furan-2-yl-8-trifluoromethyl-imidazo[1,2-a]pyridine-2-carboxylic acid (2-phenyl-cyclopropyl)-amide] yielded an inhibition at 10 µM of 80.5%.
The molecule `COC(=O)[C@@H]1CN(C(=O)c2nc3c(C(F)(F)F)cc(-c4ccoc4)cn3c2Cl)C[C@H]1c1ccccc1` (stereo in doubt) [Compound 221, 1-(3-Chloro-6-furan-3-yl-8-trifluoromethyl-imidazo[1,2-a]pyridine-2-carbonyl)-4-phenyl-pyrrolidine-3-carboxylic Acid Methyl Ester] returned an inhibition at 10 µM of 73.6%.
Consider `CN(C)CCNC(=O)[C@@H]1CN(C(=O)c2nc3c(C(F)(F)F)cc(-c4ccoc4)cn3c2Cl)C[C@H]1c1ccccc1` (stereo in doubt) [Compound 224, 1-(3-Chloro-6-furan-3-yl-8-trifluoromethyl-imidazo[1,2-a]pyridine-2-carbonyl)-4-phenyl-pyrrolidine-3-carboxylic Acid (2-dimethylamino-ethyl)-amide], for which at 10 µM the inhibition was 98.7%.
As to `O=C(NCCN1CCOCC1)[C@@H]1CN(C(=O)c2nc3c(C(F)(F)F)cc(-c4ccoc4)cn3c2Cl)C[C@H]1c1ccccc1` (stereo in doubt) [Compound 225], testing at 10 µM gave an inhibition of 39.8%.
In the case of `COC(=O)[C@H]1[C@@H](c2ccccc2)CCN1C(=O)c1nc2c(C(F)(F)F)cc(-c3ccoc3)cn2c1Cl` (stereo in doubt) [Compound 227, 1-(3-Chloro-6-furan-3-yl-8-trifluoromethyl-imidazO [1,2-a]pyridine-2-carbonyl)-3-phenyl-pyrrolidine-2-carboxylic Acid Methyl Ester] it was 49.2%; in that of `CN(C)CCNC(=O)[C@H]1[C@@H](c2ccccc2)CCN1C(=O)c1nc2c(C(F)(F)F)cc(-c3ccoc3)cn2c1Cl` (stereo in doubt) [Compound 230, 1-(3-Chloro-6-furan-3-yl-8-trifluoromethyl-imidazo[1,2-a]pyridine-2-carbonyl)-3-phenyl-pyrrolidine-2-carboxylic Acid (2-dimethylamino-ethyl)-amide], 53.4%.
In turn, `C[C@@H](CNC(=O)c1nc2c(C(F)(F)F)cc(-c3ccoc3)cn2c1Cl)c1ccccc1` (stereo in doubt) [Compound 413, 3-Chloro-6-furan-3-yl-8-trifluoromethyl-imidazo[1,2-a]pyridine-2-carboxylic Acid (2-phenyl-propyl)-amide] returned an inhibition at 10 µM of 82.8%.
Molecule `CC(C)(C)OC(=O)N[C@H]1CN(C(=O)c2nc3c(C(F)(F)F)cc(-c4ccoc4)cn3c2Cl)C[C@@H]1c1ccccc1` (stereo in doubt) [Compound 456, (-1-(3-Chloro-6-furan-3-yl-8-trifluoromethyl-imidazo[1,2-a]pyridine-2-carbonyl)-4-phenyl-pyrrolidin-3-yl)-carbamic acid tert-butyl ester] gave an inhibition at 10 µM of 79.3%.
The molecule `CS(=O)(=O)N[C@H]1CN(C(=O)c2nc3c(C(F)(F)F)cc(-c4ccoc4)cn3c2Cl)C[C@@H]1c1ccccc1` (stereo in doubt) [Compound 458, N-(-1-(3-Chloro-6-furan-3-yl-8-trifluoromethyl-imidazo[1,2-a]pyridine-2-carbonyl)-4-phenyl-pyrrolidin-3-yl)-methanesulfonamide] had an inhibition at 10 µM of 64.6%.
In the case of `CC(=O)N[C@H]1CN(C(=O)c2nc3c(C(F)(F)F)cc(-c4ccoc4)cn3c2Cl)C[C@@H]1c1ccccc1` (stereo in doubt) [Compound 459, N-(-1-(3-Chloro-6-furan-3-yl-8-trifluoromethyl-imidazo[1,2-a]pyridine-2-carbonyl)-4-phenyl-pyrrolidin-3-yl)-acetamide] it was 25.5%; in that of `O=C(NCc1cccs1)c1cc2cc(-c3ccccc3)cc(I)n2n1` [Compound 102, 7-Iodo-5-phenyl-pyrazolo[1,5-a]pyridine-2-carboxylic Acid (thiophen-2-ylmethyl)-amide], 81%; in that of `O=C(NCc1cccs1)c1nc2c(C(F)(F)F)cc(-c3ccccc3)nc2[nH]1` [Compound 103, 5-Phenyl-7-trifluoromethyl-3H-imidazo[4,5-b]pyridine-2-carboxylic acid (thiophen-2-ylmethyl)-amide], 54.7%.
Take `O=C(NCc1cccs1)c1[nH]c2c(C(F)(F)F)cc(-c3ccccc3)cc2c1Cl` [Compound 104, 3-Chloro-5-phenyl-7-trifluoromethyl-1H-indole-2-carboxylic Acid (thiophen-2-ylmethyl)-amide]: 10 µM produced 44% inhibition.
In turn, `O=C(NCc1cccs1)c1cc2cc(-c3ccco3)cc(Cl)c2[nH]1` [Compound 105, 7-Chloro-5-furan-2-yl-1H-indole-2-carboxylic acid (thiophen-2-ylmethyl)-amide] yielded an inhibition at 10 µM of 58.2%.
Molecule `O=C(NCc1cccs1)c1cc2cc(-c3ccccc3)cc(Cl)c2[nH]1` [Compound 106, 7-Chloro-5-phenyl-1H-indole-2-carboxylic Acid (thiophen-2-ylmethyl)-amide] showed an inhibition at 10 µM of 60.8%.
`O=C(NCc1cccs1)c1cc2cc(-c3ccccc3)cc(C(F)(F)F)n2n1` [Compound 107, 5-Phenyl-7-trifluoromethyl-pyrazolo[1,5-a]pyridine-2-carboxylic Acid (thiophen-2-ylmethyl)-amide] came in with an inhibition at 10 µM of 82.4%.
The molecule `N#Cc1cc(-c2ccccc2)cc2cc(C(=O)NCc3cccs3)nn12` [Compound 108, 7-Cyano-5-phenyl-pyrazolo[1,5-a]pyridine-2-carboxylic acid (thiophen-2-ylmethyl)-amide] registered an inhibition at 10 µM of 52.2%.
Molecule `O=C(NCc1cccs1)c1[nH]c2c(Cl)cc(-c3ccccc3)cc2c1Cl` [Compound 110, 3,7-Dichloro-5-phenyl-1H-indole-2-carboxylic acid (thiophen-2-ylmethyl)-amide] showed an inhibition at 10 µM of 35.9%.
In the case of `O=C(NCc1cccs1)c1cc2cc(-c3ccccc3)cc(Br)n2n1` [Compound 111, 7-Bromo-5-phenyl-pyrazolo[1,5-a]pyridine-2-carboxylic Acid (thiophen-2-ylmethyl)-amide] it was 64.2%; in that of `O=C(NCc1cccs1)c1nn2c(Br)cc(-c3ccccc3)cc2c1Cl` [Compound 112, 7-Bromo-3-chloro-5-phenyl-pyrazolo[1,5-a]pyridine-2-carboxylic Acid (thiophen-2-ylmethyl)-amide], 74.2%.
For `O=C(NCc1cccs1)c1nn2c(Br)cc(-c3ccccc3)cc2c1Br` [Compound 113, 3,7-dibromo-5-phenyl-pyrazolo[1,5-a]pyridine-2-carboxylic Acid (thiophen-2-ylmethyl)-amide], the inhibition at 10 µM was 77.3%.
Take `Cc1cc(-c2ccccc2)cc2cc(C(=O)NCc3cccs3)nn12` [Compound 114, 7-Methyl-5-phenyl-pyrazolo[1,5-a]pyridine-2-carboxylic acid (thiophen-2-ylmethyl)-amide]: the inhibition at 10 µM was 37.9%.
In turn, `Cc1c(C(=O)NCc2cccs2)nn2c(C)cc(-c3ccccc3)cc12` [Compound 115, 3,7-dimethyl-5-phenyl-pyrazolo[1,5-a]pyridine-2-carboxylic Acid (thiophen-2-ylmethyl)-amide] came in with an inhibition at 10 µM of 55.3%.
The molecule `COc1cc(-c2ccccc2)cc2cc(C(=O)NCc3cccs3)nn12` [Compound 117, 7-Methoxy-5-phenyl-pyrazolo[1,5-a]pyridine-2-carboxylic Acid (thiophen-2-ylmethyl)-amide] yielded an inhibition at 10 µM of 25.8%.
As to `O=C(NCc1cccs1)c1nn2c(I)cc(-c3ccccc3)cc2c1I` [Compound 119, 3,7-diiodo-5-phenyl-pyrazolo[1,5-a]pyridine-2-carboxylic Acid (thiophen-2-ylmethyl)-amide], at 10 µM the inhibition was 71.5%.
Molecule `O=C(NCc1cccs1)c1nn2c(I)cc(-c3ccccc3)cc2c1Br` [Compound 120, 3-Bromo-7-iodo-5-phenyl-pyrazolo[1,5-a]pyridine-2-carboxylic Acid (thiophen-2-ylmethyl)-amide] displayed an inhibition at 10 µM of 66.6%.
With `O=C(NCc1cccs1)c1nn2c(I)cc(-c3ccccc3)cc2c1Cl` [Compound 121, 3-Chloro-7-iodo-5-phenyl-pyrazolo[1,5-a]pyridine-2-carboxylic Acid (thiophen-2-ylmethyl)-amide], at 10 µM the inhibition was 73.9%.
Under `O=C(NCc1cccs1)c1nn2c(C(F)(F)F)cc(-c3ccccc3)cc2c1Cl` [Compound 122, 3-Chloro-5-phenyl-7-trifluoromethyl-pyrazolo[1,5-a]pyridine-2-carboxylic Acid (thiophen-2-ylmethyl)-amide] stands 94.3%.

Broadly, the inhibition is the share of the control response that was lost under treatment. Read a high inhibition as a strong effect.
